Several values for one entry are separate records, joined by “and”; a condition that tells them apart may be missing. Equal values may be shown once.
Experiments:
Fusarium oxysporum = experiment: in vitro mycelial growth inhibition, modified agar dilution method
[1] = tested on: covered kernel smut (Sporisorium sorghi); experiment: field trial, sorghum seed treatment against covered kernel smut; type: in vivo, Sporisorium sorghi on sorghum; conditions: sorghum seed inoculated with covered kernel smut spores; extract 2.0 g/l, Thiram 0.25% (w/w); field conditions
[2] = tested on: loose kernel smut (Sporisorium cruentum); experiment: field trial, sorghum seed treatment against loose kernel smut; type: in vivo, Sporisorium cruentum on sorghum; conditions: sorghum seed inoculated with loose kernel smut spores; extract 2.0 g/l, Thiram 0.25% (w/w); field conditions
[3] = below soil part compounds after P-TLC separation
[4] = aerial part compounds after P-TLC separation

| Molecule | % inhibition (mycelial growth of F. oxysporum) (Fusarium oxysporum; [3]) | % inhibition (mycelial growth of F. oxysporum) (Fusarium oxysporum; [4]) | further results |
| --- | --- | --- | --- |
| CSCSSSCSC [Compound B3.2, 2,4,5,6,8-Pentathianonane] | 72% |  |  |
| CN(C)C(=S)SSC(=S)N(C)C [Thiram] |  |  | Yield [1]: 4.8 ± 0.6a ton ha^−1; Yield [2]: 3.9 ± 1.3a ton ha^−1 |
| Methylthiosulphonate [Compound A7.2] |  | 50% and 52% |  |
| CSCSSCSC [Compound B2.2, 2,4,5,7-Tetrathiaoctane] | 87% |  |  |
| CSCSCSC [Compound A6.1, 2,4,6-Trithiaheptane] |  | 85% |  |
| 2,4-Dithiapentane [Compound A7.1] |  | 87% |  |

— US8697149B2, “Extracts and compounds from “Tulbaghia violacea” and their use as biological plant protecting agents” (Agrarforum AG, priority 2005, dated 2014)
